Measurements: patent US12240858B2 (ANBOGEN THERAPEUTICS, INC, priority 2021, dated 2025)
Converted amounts (≈) assume the structure as drawn. Where a name gives a salt, the structure may show the parent alone. Read-outs that look alike come from different tables or passages of the source.

What was measured:
[1] = Pharmacokinetics study, rat IV and PO; assay type: in vivo
[2] = Solubility 24 hrs in FaSSIF, FeSSIF, SGF, H2O; assay type: physicochemical; details: thermodynamic from solid
Text: In Table 3, “FaSSIF” stands for “Fasted state simulated intestinal fluid”; “FeSSIF” stands for “Fed state simulated intestinal fluid”; “SGF” stands for “Simulated gastric fluid”.

[3] = Weight loss before melting (TGA) of solid forms; assay type: physicochemical
[4] = Stability of solid forms under stress conditions; assay type: physicochemical
[5] = 20 mg/kg, listed as ABT-101 S0*
[6] = FeSSIF (fed state simulated intestinal fluid), fessif
[7] = SGF (simulated gastric fluid), simulated gastric fluid, SGF

CN(C)C/C=C/C(=O)Nc1cccc(-c2c(-c3ccccc3)oc3ncnc(N[C@H](CO)c4ccccc4)c23)c1 [ABT-101 S0, (S, E)-4-(dimethylamino)-N-(3-(4-(2-hydroxy-1-phenylethylamino)-6-phenylfuro[2,3-d]pyrimidin-5-yl)phenyl)but-2-enamide]
increased Cmax, AUC and F (%) compared to amorphous form (ABT-101 S0) [1]: 1.9˜3 times
Cmax ([1]; 20 mg/kg): 136 ng/mL
F (%) ([1]; 20 mg/kg): 19%
Cmax [1, 5]: 508 ng/mL
F (%) [1, 5]: 42%
Tmax [1, 5]: 3.3 h
half-life ([1]; rat, in vivo, po, 20 mg/kg): 4.7 h
Tmax ([1]; rat, in vivo, po, 20 mg/kg, read-out: Tmax): 4 h

CN(C)C/C=C/C(=O)Nc1cccc(-c2c(-c3ccccc3)oc3ncnc(NC(CO)c4ccccc4)c23)c1 (stereo not drawn) [Glycollate]
solubility at 24 h [2, 6]: > 11300 µg/mL
solubility at 24 h [2, 7]: > 10900 µg/mL
Weight loss before melting (%) (TGA) [3]: 0.7 wt %
Stability ([4]; 25° C./60% RH, 1 week): Stable
Stability ([4]; 40° C./75% RH, 1 week): Unstable
Stability ([4]; 80° C., 24 hrs): Stable

CN(C)C/C=C/C(=O)Nc1cccc(-c2c(-c3ccccc3)oc3ncnc(N[C@H](CO)c4ccccc4)c23)c1 [Free Base, (S, E)-4-(dimethylamino)-N-(3-(4-(2-hydroxy-1-phenylethylamino)-6-phenylfuro[2,3-d]pyrimidin-5-yl)phenyl)but-2-enamide]
solubility at 24 h ([2]; FaSSIF (fasted state simulated intestinal fluid), fassif): 320 µg/mL (≈ 600 µM)
solubility at 24 h [2, 6]: 410 µg/mL (≈ 768 µM)
solubility at 24 h [2, 7]: 9100 µg/mL (≈ 17100 µM)
solubility at 24 h ([2]; water, H2O): 20 µg/mL (≈ 37.5 µM)
Weight loss before melting (%) (TGA) [3]: 0.6 wt %
Stability ([4]; 25° C./60% RH, 1 week): Stable
Stability ([4]; 40° C./75% RH, 1 week): Stable
Stability ([4]; 80° C., 24 hrs): Stable

CN(C)C/C=C/C(=O)Nc1cccc(-c2c(-c3ccccc3)oc3ncnc(NC(CO)c4ccccc4)c23)c1 (stereo not drawn) [Hydrochloride]
Weight loss before melting (%) (TGA) [3]: 3.6 wt %
Stability ([4]; 25° C./60% RH, 1 week): Stable
Stability ([4]; 40° C./75% RH, 1 week): Stable
Stability ([4]; 80° C., 24 hrs): Stable

CN(C)C/C=C/C(=O)Nc1cccc(-c2c(-c3ccccc3)oc3ncnc(NC(CO)c4ccccc4)c23)c1 (stereo not drawn) [Succinate]
Weight loss before melting (%) (TGA) [3]: 0.5 wt %
Stability ([4]; 25° C./60% RH, 1 week): Stable
Stability ([4]; 40° C./75% RH, 1 week): Unstable
Stability ([4]; 80° C., 24 hrs): Stable
